For the assay, the system named is P. gingivalis adherence to S. gordonii. Briefly: Inhibition of P. gingivalis adherence to S. gordonii in two-species biofilm model. Format: cell-based, P. gingivalis ATCC33277; S. gordonii DL-1. The text has this: To assess the functional activity of the click products, compounds 28-57 (Groups I and II) and 90-124 (Group III) were examined for inhibition of P. gingivalis adherence to S. gordonii using an established biofilm model system as described in the Section 4.2.1 [41]. For each compound tested, an IC50 value for adherence inhibition was approximated after quantifying the ratio of green to red fluorescence and these values are shown in Tables 2, 3 and 4. Compounds were classified as strong (IC50<10 μM), moderate (IC50=10-20 μM) or weak (IC50>20 μM) inhibitors of adherence. Twelve compounds were identified as strong inhibitors and an additional ten compounds were classified as moderate inhibitors. […] Compounds 54, 56, 93, 95, 100, 102, 103, and 115 were also tested to determine if they affect the growth of P. gingivalis or S. gordonii. […] The sulfoxide group does impart asymmetry to the molecule; however, the mixture of enantiomers, assuming the peracid oxidation was racemic, was not separated and bioassayed. The Group III active compounds (95-117) all contain the 1,3,5-trisubstituted-2,4,6-triazine modeled after the Katzenellenbogen rendering of an active motif whereby the key leucine residues which mimicked the VXXLL receptor box lie in a triangular arrangement. While the original iteration of the Katzenellenbogen VXXLL mimics were the hydrophobic 3,5-disubstituted-di-N-alkyamino-triazine motifs, we introduced the hydrophobic 2- and 4-(fluorophenyl)amino groups at positions 3 and 5 of the 2,4,6-triazine (See Compounds 102, 111, 115, 122).
P. gingivalis ATCC33277 was grown in reduced trypticase soy broth (Difco) supplemented with 0.5 percent yeast extract, 1 μg/mL menadione, and 5 μg/mL hemin. Twenty five milliliters of medium were reduced for 24 h under anaerobic conditions by equilibrating in an atmosphere consisting of 10% CO2, 10% H2, and 80% N2. Following equilibration, P. gingivalis was inoculated in the media and grown for 48 h at 37° C. under anaerobic conditions. S. gordonii DL-1 (1) was cultured aerobically without shaking in brain heart infusion (BHI) broth supplemented with 1 percent yeast extract for 16 hours at 37° C. For some compounds that inhibited P. gingivalis adherence to S. gordonii, we determined their affect the planktonic growth of P. gingivalis and S. gordonii. Broth cultures were grown as described above and compared to cultures grown in the absence of the compound. Cell density of each culture was determined by measuring the optical density at 600 nm (O.D.600 nm) after 24 h of growth. The percent growth inhibition/stimulation was calculated using the following equation: [(O.D.600 nm of the control/O.D.600 nm of the culture grown in the presence of compound)−1]×100.
Two species biofilms were formed essentially as previously described. To prepare bacterial cells for biofilm culture, 10 ml of an overnight S. gordonii culture was centrifuged at 5600 rpm for 5 min and the cell pellet was suspended in 1 mL sterile PBS. Subsequently, 20 μL of 5 mg/ml hexidium iodide (Molecular Probes) was added to the cell suspension and incubated for 15 min with gentle shaking at room temperature in the dark. The labeled cells were centrifuged as described above, washed with phosphate buffered saline (10 mM Na2HPO4, […], […], and 2.7 mM KCl, pH 7.2; [PBS]) and the cell pellet was suspended in PBS at a final O.D.600 nm of 0.8. Similarly, 10 mL of a 48 h culture of P. gingivalis was centrifuged at 5600 rpm for 15 min, the cell pellet was suspended in 1 mL PBS and 20 μl of 5(6)-carboxyfluorescein N-hydroxysuccinimide ester (4 mg/ml, Molecular Probes, Inc.) was added. After incubation for 30 min with gentle shaking at room temperature in the dark, the suspension was centrifuged and washed as described above and suspended in PBS at a final O.D.600 nm of 0.4. […]

[1] abbreviates: Table 2, Group I triazoles, concentration reducing ratio of green (P. gingivalis) to red (S. gordonii) fluorescence by 50%, approximated.
The mark [2] stands for this setting: Table 3, Group II click products, concentration reducing green to red fluorescence ratio by 50%, approximated.

The structures appear in SMILES notation.

Consider 41 molecules from US12215104B2, “Anti-biofilm compounds” (UNIVERSITY OF LOUISVILLE RESEARCH FOUNDATION, INC., priority 2018, dated 2025).

Take `[O-][S+](Cc1nc(-c2ccccc2)c(-c2ccccc2)o1)c1ccc(-n2cc(-c3cccnc3)nn2)cc1` (racemic) [Compound 28, 4,5-Diphenyl-2-(((4-(4-(pyridin-3-yl)-1H-1,2,3-triazol-1-yl)phenyl)sulfinyl)methyl) oxazole]: under setting [1], the IC50 (usually the point on the concentration scale where inhibition reaches its midpoint) is above 60 µM.
On the same count and under the same terms, the figure for `[O-][S+](Cc1nc(-c2ccccc2)c(-c2ccccc2)o1)c1ccc(-n2cc(-c3ccc(F)cc3)nn2)cc1` (centres unmarked) [Compound 29] is above 60 µM.
Still for that read-out and setting: as for `[O-][S+](Cc1nc(-c2ccccc2)c(-c2ccccc2)o1)c1ccc(-n2cc(-c3cccc(F)c3)nn2)cc1` (centres unmarked) [Compound 30], the figure is 47.3 µM; as for `COc1ccccc1-c1cn(-c2ccc([S+]([O-])Cc3nc(-c4ccccc4)c(-c4ccccc4)o3)cc2)nn1` (centres unmarked) [Compound 31], above 60 µM; as for `[O-][S+](Cc1nc(-c2ccccc2)c(-c2ccccc2)o1)c1ccc(-n2cc(-c3ccccc3C(F)(F)F)nn2)cc1` (centres unmarked) [Compound 32], above 60 µM.
On the same count and under the same terms, the figure for `COc1ccc2cc(-c3cn(-c4ccc([S+]([O-])Cc5nc(-c6ccccc6)c(-c6ccccc6)o5)cc4)nn3)ccc2c1` (centres unmarked) [Compound 33] is above 60 µM.
As for `CCCCCc1ccc(-c2cn(-c3ccc([S+]([O-])Cc4nc(-c5ccccc5)c(-c5ccccc5)o4)cc3)nn2)cc1` (centres unmarked) [Compound 34], the IC50 under setting [1] is above 60 µM.
Still for that read-out and setting: the figure for `[O-][S+](Cc1nc(-c2ccccc2)c(-c2ccccc2)o1)c1ccc(-n2cc(-c3ccc(Oc4ccccc4)cc3)nn2)cc1` (centres unmarked) [Compound 35] is above 60 µM; for `[O-][S+](Cc1nc(-c2ccccc2)c(-c2ccccc2)o1)c1ccc(-n2cc(-c3cc(C(F)(F)F)cc(C(F)(F)F)c3)nn2)cc1` (centres unmarked) [Compound 36] it is above 60 µM.
The same measure, in the same setting: as for `O=S(=O)(Cc1nc(-c2ccccc2)c(-c2ccccc2)o1)c1ccc(-n2cc(-c3cccnc3)nn2)cc1` [Compound 37], the figure is above 60 µM.
On the same count and under the same terms, the figure for `O=S(=O)(Cc1nc(-c2ccccc2)c(-c2ccccc2)o1)c1ccc(-n2cc(-c3ccc(F)cc3)nn2)cc1` [Compound 38] is 15.7 µM; for `O=S(=O)(Cc1nc(-c2ccccc2)c(-c2ccccc2)o1)c1ccc(-n2cc(-c3cccc(F)c3)nn2)cc1` [Compound 39] it is 33.6 µM; for `COc1ccccc1-c1cn(-c2ccc(S(=O)(=O)Cc3nc(-c4ccccc4)c(-c4ccccc4)o3)cc2)nn1` [Compound 40] it is 13.1 µM.
For the molecule `O=S(=O)(Cc1nc(-c2ccccc2)c(-c2ccccc2)o1)c1ccc(-n2cc(-c3ccccc3C(F)(F)F)nn2)cc1` [Compound 41], under setting [1], the IC50 is above 60 µM.
In the case of `COc1ccc2cc(-c3cn(-c4ccc(S(=O)(=O)Cc5nc(-c6ccccc6)c(-c6ccccc6)o5)cc4)nn3)ccc2c1` [Compound 42], the concentration for half-maximal inhibition (IC50) under setting [1] is above 60 µM.
Regarding `CCCCCc1ccc(-c2cn(-c3ccc(S(=O)(=O)Cc4nc(-c5ccccc5)c(-c5ccccc5)o4)cc3)nn2)cc1` [Compound 43], the IC50 under setting [1] was found to be 36.6 µM.
On the same count and under the same terms, as for `O=S(=O)(Cc1nc(-c2ccccc2)c(-c2ccccc2)o1)c1ccc(-n2cc(-c3ccc(Oc4ccccc4)cc3)nn2)cc1` [Compound 44], the figure is 16.5 µM.
The same measure, in the same setting: as for `O=S(=O)(Cc1nc(-c2ccccc2)c(-c2ccccc2)o1)c1ccc(-n2cc(-c3cc(C(F)(F)F)cc(C(F)(F)F)c3)nn2)cc1` [Compound 45], the figure is 38.5 µM.
As for `[O-][S+](Cc1nc(-c2ccc(F)cc2)c(-c2ccc(F)cc2)o1)c1ccc(-n2cc(-c3cccc(F)c3)nn2)cc1` (centres unmarked) [Compound 46], the IC50 under setting [2] was determined as 5.3 µM.
Same read-out and setting: as for `[O-][S+](Cc1nc(-c2ccc(F)cc2)c(-c2ccc(F)cc2)o1)c1ccc(-n2cc(-c3ccc(F)cc3)nn2)cc1` (centres unmarked) [Compound 47], the figure is 35.9 µM.
The same measure, in the same setting: as for `COc1ccccc1-c1cn(-c2ccc([S+]([O-])Cc3nc(-c4ccc(F)cc4)c(-c4ccc(F)cc4)o3)cc2)nn1` (centres unmarked) [Compound 48], the figure is 7.2 µM.
The same measure, in the same setting: as for `[O-][S+](Cc1nc(-c2ccc(Cl)cc2)c(-c2ccc(Cl)cc2)o1)c1ccc(-n2cc(-c3cccc(F)c3)nn2)cc1` (centres unmarked) [Compound 49], the figure is 15.1 µM.
Take `[O-][S+](Cc1nc(-c2ccc(Cl)cc2)c(-c2ccc(Cl)cc2)o1)c1ccc(-n2cc(-c3ccc(F)cc3)nn2)cc1` (centres unmarked) [Compound 50]: the IC50 under setting [2] stood at 39.8 µM.
On the same count and under the same terms, the figure for `COc1ccccc1-c1cn(-c2ccc([S+]([O-])Cc3nc(-c4ccc(Cl)cc4)c(-c4ccc(Cl)cc4)o3)cc2)nn1` (centres unmarked) [Compound 51] is 10.2 µM; for `O=S(=O)(Cc1nc(-c2ccc(Cl)cc2)c(-c2ccc(Cl)cc2)o1)c1ccc(-n2cc(-c3cccc(F)c3)nn2)cc1` [Compound 55] it is 18.2 µM.
Where the note is “Group III”, `CCN(CC)c1nc(-c2cn(-c3cccc(-c4nc(-c5ccccc5)c(-c5ccccc5)o4)c3)nn2)nc(N(CC)CC)n1` [Compound 90] returned an IC50 of 20.7 µM.
Same read-out and setting: the figure for `CCN(CC)c1nc(-c2cn(-c3ccc(-c4nc(-c5ccccc5)c(-c5ccccc5)o4)cc3)nn2)nc(N(CC)CC)n1` [Compound 91] is above 60 µM.
On the same count and under the same terms, as for `CCN(CC)c1nc(-c2cn(-c3cccc(-c4nc(-c5ccc(F)cc5)c(-c5ccc(F)cc5)o4)c3)nn2)nc(N(CC)CC)n1` [Compound 92], the figure is above 60 µM.
Under “Group III”, `CCN(CC)c1nc(-c2cn(-c3cccc(-c4nc(-c5ccc(Cl)cc5)c(-c5ccc(Cl)cc5)o4)c3)nn2)nc(N(CC)CC)n1` [Compound 94] came in with an IC50 of 16 µM.
The same measure, in the same setting: the figure for `CCN(CC)c1nc(-c2cn(-c3cccc(-c4nc(-c5ccc(OC)cc5)c(-c5ccc(OC)cc5)o4)c3)nn2)nc(N(CC)CC)n1` [Compound 96] is above 60 µM; for `CCN(CC)c1nc(-c2cn(-c3ccc(-c4nc(-c5ccc(OC)cc5)c(-c5ccc(OC)cc5)o4)cc3)nn2)nc(N(CC)CC)n1` [Compound 97] it is 36.6 µM; for `CCN(CC)c1nc(-c2cn(-c3cccc(-c4nc(-c5ccco5)c(-c5ccco5)o4)c3)nn2)nc(N(CC)CC)n1` [Compound 98] it is above 60 µM.
On the same count and under the same terms, the figure for `CCN(CC)c1nc(-c2cn(-c3ccc(-c4nc(-c5ccco5)c(-c5ccco5)o4)cc3)nn2)nc(N(CC)CC)n1` [Compound 99] is above 60 µM; for `Fc1ccccc1Nc1nc(Nc2ccccc2F)nc(-c2cn(-c3ccc(-c4nc(-c5ccccc5)c(-c5ccccc5)o4)cc3)nn2)n1` [Compound 101] it is above 60 µM.
Molecule `Fc1ccccc1Nc1nc(Nc2ccccc2F)nc(-c2cn(-c3cccc(-c4nc(-c5ccc(Cl)cc5)c(-c5ccc(Cl)cc5)o4)c3)nn2)n1` [Compound 104] displayed an IC50 (Group III) of 33.8 µM.
The same measure, in the same setting: as for `Fc1ccccc1Nc1nc(Nc2ccccc2F)nc(-c2cn(-c3ccc(-c4nc(-c5ccc(Cl)cc5)c(-c5ccc(Cl)cc5)o4)cc3)nn2)n1` [Compound 105], the figure is above 60 µM; as for `COc1ccc(-c2nc(-c3cccc(-n4cc(-c5nc(Nc6ccccc6F)nc(Nc6ccccc6F)n5)nn4)c3)oc2-c2ccc(OC)cc2)cc1` [Compound 106], above 60 µM; as for `COc1ccc(-c2nc(-c3ccc(-n4cc(-c5nc(Nc6ccccc6F)nc(Nc6ccccc6F)n5)nn4)cc3)oc2-c2ccc(OC)cc2)cc1` [Compound 107], 40 µM.
The same measure, in the same setting: the figure for `Fc1ccccc1Nc1nc(Nc2ccccc2F)nc(-c2cn(-c3cccc(-c4nc(-c5ccco5)c(-c5ccco5)o4)c3)nn2)n1` [Compound 108] is above 60 µM.
For `Fc1ccccc1Nc1nc(Nc2ccccc2F)nc(-c2cn(-c3ccc(-c4nc(-c5ccco5)c(-c5ccco5)o4)cc3)nn2)n1` [Compound 109], the IC50 (Group III) is above 60 µM.
Where the note is “Group III”, `Fc1ccc(Nc2nc(Nc3ccc(F)cc3)nc(-c3cn(-c4ccccc4-c4nc(-c5ccccc5)c(-c5ccccc5)o4)nn3)n2)cc1` [Compound 110] registered an IC50 above 60 µM.
